Measurements from patent US9499495B2, “Quinazolines and azaquinazolines as dual inhibitors of RAS/RAF/MEK/ERK and PI3K/AKT/PTEN/mTOR pathways” (Asana Biosciences, LLC, priority 2013, dated 2016).

Legend:
[1] = system: pERK in A375 cells; assay: In Cell Western (ICW) assay, pERK in A375 cells; format: cell-based; settings: Homo sapiens, A-375, 3 h treatment
Summary of the method: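 After a 3 h compound treatment at 37 °C, fixed RKO or A375 cells were probed for phospho-ERK1/2 (T202/Y204), phospho-S6RP or phospho-AKT T308 and detected with a Eu-tagged anti-rabbit antibody (ex 340/em 615 nm), with Hoechst signal as the cell-number correction. Inhibition was referenced to DMSO, and IC50 values came from sigmoidal dose-response curves.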

[2] = molecular target: T1, PI3Kα (Homo sapiens, UniProt P42336); assay: PI3 Kinase alpha TR-FRET assay; format: biochemical
T1 construct: made in house; host or cells: SF9 cells
Protocol: Compound inhibition for PI3Kα was determined in a homogeneous TR-FRET assay using a PI3Kα assay kit (Millipore, US, Catalog #33-016). The PI3 kinase catalyzes phosphorylation of […] (PIP2) to phosphatidylinositol 3,4,5-trisphosphate (PIP3) in the presence of ATP and Mg^2+. The PIP3 product is detected by displacement of biotin-PIP3 from an energy transfer complex consisting of Europium labeled anti-GST monoclonal antibody, a GST-tagged pleckstrin homology (PH) domain, biotinylated PIP3 and Streptavidin-Allophycocyanin (APC). Excitation of Europium in the complex results in an energy transfer to the APC and a fluorescence emission at 665 nm.
Compounds tested were dissolved in DMSO and directly distributed into 384-well plates at a volume of 0.5 μL. P110/P85a/PIP2 mixture (14.5 μL) was added to compound wells and incubated for 30 min at rt […]. P110/P85a was expressed in SF9 cells and purified in-house. 5 ng P110/P85a was used in the assay. The kinase reaction was started by the addition of ATP. The assay concentrations of both PIP2 and ATP were 40 μM. The reaction mixture was incubated for 30 min and was terminated by the addition of stop mix and detection mix. Fluorescence was measured at 615 and 665 nm upon excitation at 340 nm in a Victor V5 fluorometer (Perkin Elmer, US). The fluorescence emission ratio at 665 to 615 nm, proportional to the kinase activity, was plotted against the compound concentration to generate dose-response curves and IC50 values were determined.

[3] = molecular target: T2, B-RAFV600E (Homo sapiens, UniProt P15056, V600E); assay: B-RAFV600E radiometric assay; format: biochemical; settings: read-out: Kinase assay B-Raf
T2 construct: purchased Millipore, USA 14-557
Summary of the method: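 B-RAFV600E was preincubated 45 min at rt with compound in 1% DMSO. MEK-K97M (0.5 μg), 5 μM final cold ATP and [γ-32P]ATP were then added for 2 h at rt. Phosphorylated MEK was captured on P81 paper and scintillation-counted; IC50 came from a sigmoidal dose-response fit.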

[4] = system: A375 cells; assay: XTT assay for cell viability, A375 cells; format: cell-based; settings: Homo sapiens, A-375, 72 h
Summary of the method: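 GI50 derived by sigmoidal dose-response fitting of proliferation normalised to DMSO control (100%). Readout: A450 after 2-3 h with XTT (1 mg/ml)/PMS (25 μM), following 72 h compound treatment at 37° C., 5% CO2 of cells plated at 1000-2000 per well the previous day.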

[5] = molecular target: T3, mTOR kinase (Homo sapiens, UniProt P42345); assay: mTOR kinase TR-FRET assay; format: biochemical
T3 construct: purchased Millipore, US
Summary of the method: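 TR-FRET with ULight-p70 S6K (Thr 389) peptide (50 nM) and 20 μM ATP in 50 mM HEPES pH 7.5, 1 mM EGTA, 3 mM MnCl2; compound pre-incubated with enzyme before substrate addition, reaction at rt, EDTA-stopped. Eu anti-phospho antibody read 665/615 nm; IC50 from sigmoidal dose-response fit.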

T1 sequence (P42336 whole entry, species assumed): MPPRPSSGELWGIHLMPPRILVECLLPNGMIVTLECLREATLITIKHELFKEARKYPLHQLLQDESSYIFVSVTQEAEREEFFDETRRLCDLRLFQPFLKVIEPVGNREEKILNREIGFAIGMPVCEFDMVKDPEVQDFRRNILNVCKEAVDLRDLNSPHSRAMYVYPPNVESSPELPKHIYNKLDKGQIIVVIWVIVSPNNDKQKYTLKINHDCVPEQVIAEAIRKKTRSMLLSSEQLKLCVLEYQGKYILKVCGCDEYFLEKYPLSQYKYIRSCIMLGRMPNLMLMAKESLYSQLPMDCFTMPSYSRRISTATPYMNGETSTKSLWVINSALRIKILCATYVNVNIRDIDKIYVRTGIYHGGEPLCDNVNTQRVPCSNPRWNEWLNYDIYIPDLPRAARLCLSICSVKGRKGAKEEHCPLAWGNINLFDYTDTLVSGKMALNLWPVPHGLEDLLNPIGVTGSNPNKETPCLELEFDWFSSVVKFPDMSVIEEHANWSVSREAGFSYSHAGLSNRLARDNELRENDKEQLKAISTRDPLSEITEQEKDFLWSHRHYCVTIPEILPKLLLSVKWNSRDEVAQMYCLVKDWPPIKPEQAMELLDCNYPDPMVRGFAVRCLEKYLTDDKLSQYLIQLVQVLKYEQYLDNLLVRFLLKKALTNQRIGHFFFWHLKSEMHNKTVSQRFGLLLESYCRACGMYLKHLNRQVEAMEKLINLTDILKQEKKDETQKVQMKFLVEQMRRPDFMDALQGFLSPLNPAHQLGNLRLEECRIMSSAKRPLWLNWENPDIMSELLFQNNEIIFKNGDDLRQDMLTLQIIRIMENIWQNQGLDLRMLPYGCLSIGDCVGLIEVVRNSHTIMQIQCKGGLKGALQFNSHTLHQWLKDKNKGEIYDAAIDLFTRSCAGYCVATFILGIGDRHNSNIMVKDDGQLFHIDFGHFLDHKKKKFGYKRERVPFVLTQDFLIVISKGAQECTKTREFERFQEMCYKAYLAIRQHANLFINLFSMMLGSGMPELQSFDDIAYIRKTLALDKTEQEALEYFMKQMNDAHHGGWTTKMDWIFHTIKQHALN
T1 sequence (P27986 whole entry partner, species assumed): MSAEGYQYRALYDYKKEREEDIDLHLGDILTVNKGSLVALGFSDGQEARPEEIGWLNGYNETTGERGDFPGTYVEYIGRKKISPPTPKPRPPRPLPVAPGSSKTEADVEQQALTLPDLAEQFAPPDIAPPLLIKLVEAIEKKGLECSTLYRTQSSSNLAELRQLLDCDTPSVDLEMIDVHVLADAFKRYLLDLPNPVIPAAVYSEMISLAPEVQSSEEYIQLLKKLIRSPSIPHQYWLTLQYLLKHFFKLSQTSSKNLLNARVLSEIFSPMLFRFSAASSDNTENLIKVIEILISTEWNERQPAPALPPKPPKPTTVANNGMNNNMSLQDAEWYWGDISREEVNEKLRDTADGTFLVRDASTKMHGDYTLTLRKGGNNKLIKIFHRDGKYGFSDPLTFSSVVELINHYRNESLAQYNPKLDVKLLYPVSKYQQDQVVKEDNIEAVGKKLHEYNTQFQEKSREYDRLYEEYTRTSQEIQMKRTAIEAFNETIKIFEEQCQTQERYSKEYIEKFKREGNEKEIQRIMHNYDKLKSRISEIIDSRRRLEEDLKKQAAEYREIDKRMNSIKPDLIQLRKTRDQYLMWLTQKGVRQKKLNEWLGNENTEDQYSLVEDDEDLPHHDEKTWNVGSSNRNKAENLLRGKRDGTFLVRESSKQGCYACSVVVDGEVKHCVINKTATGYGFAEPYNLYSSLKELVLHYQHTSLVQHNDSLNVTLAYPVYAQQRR
T2 sequence (P15056 416-766 V600E limits assumed): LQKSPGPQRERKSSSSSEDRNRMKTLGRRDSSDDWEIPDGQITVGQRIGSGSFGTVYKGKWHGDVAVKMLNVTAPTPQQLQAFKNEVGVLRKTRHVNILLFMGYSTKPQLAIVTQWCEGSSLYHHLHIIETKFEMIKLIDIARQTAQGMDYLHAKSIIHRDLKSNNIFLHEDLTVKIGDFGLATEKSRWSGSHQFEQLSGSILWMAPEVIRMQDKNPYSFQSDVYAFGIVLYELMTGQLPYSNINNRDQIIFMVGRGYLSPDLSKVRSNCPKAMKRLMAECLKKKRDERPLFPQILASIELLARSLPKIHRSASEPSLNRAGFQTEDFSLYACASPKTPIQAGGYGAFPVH
T3 sequence (P42345 1362-2549 limits assumed): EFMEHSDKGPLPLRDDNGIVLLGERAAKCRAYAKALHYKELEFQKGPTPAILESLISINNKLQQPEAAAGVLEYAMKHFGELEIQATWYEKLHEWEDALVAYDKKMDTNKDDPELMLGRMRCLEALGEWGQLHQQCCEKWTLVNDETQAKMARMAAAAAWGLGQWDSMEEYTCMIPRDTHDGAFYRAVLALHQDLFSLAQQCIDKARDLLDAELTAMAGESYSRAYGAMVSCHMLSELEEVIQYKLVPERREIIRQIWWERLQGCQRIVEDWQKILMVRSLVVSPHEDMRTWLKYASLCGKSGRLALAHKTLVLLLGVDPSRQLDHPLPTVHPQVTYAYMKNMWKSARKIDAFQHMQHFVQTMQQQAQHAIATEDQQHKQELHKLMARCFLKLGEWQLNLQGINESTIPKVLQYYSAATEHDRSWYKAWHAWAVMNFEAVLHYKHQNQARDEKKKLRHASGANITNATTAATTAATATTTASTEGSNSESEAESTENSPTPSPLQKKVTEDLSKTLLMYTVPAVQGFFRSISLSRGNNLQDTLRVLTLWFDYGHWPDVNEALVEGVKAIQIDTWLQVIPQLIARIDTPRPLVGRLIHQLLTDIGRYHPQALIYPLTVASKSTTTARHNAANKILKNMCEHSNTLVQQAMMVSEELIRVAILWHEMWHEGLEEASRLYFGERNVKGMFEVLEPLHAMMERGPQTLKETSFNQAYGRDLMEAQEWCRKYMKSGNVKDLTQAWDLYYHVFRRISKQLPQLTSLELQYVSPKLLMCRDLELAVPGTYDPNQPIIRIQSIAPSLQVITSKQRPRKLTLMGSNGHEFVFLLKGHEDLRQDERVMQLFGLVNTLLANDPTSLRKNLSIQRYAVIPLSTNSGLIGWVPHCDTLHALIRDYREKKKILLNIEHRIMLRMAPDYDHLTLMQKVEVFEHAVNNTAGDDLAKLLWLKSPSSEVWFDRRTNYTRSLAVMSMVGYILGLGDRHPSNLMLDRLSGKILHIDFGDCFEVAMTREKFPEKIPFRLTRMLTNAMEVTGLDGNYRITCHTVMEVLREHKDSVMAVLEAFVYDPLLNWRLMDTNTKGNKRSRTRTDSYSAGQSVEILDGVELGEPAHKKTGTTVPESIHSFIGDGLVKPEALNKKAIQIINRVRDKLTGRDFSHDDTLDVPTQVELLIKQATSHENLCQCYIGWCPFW

| SMILES | IC50 [1] [nM] | IC50 [2] [nM] | IC50 [3] [nM] | IC50 [4] [nM] | IC50 [5] [nM] |
| --- | --- | --- | --- | --- | --- |
| CCCS(=O)(=O)Nc1cccc(-c2cc(OC)c3nc(-c4cccc5[nH]ncc45)nc(N4CCOCC4)c3c2)c1F [Example 2, N-(3-(2-(1H-indazol-4-yl)-8-methoxy-4-morpholinoquinazolin-6-yl)-2-fluorophenyl) propane-1-sulfonamide] | 100 to 1000 | 100 to 1000 | 1 to 100 | 100 to 1000 | – |
| CCCS(=O)(=O)Nc1cccc(-c2cc(OC)c3nc(-c4ccc(NCCN)nc4)nc(N4CCOCC4)c3c2)c1F [Example 3] | 1 to 100 | 100 to 1000 | 1 to 100 | 1000 to 10000 | – |
| CCCS(=O)(=O)Nc1cccc(-c2cc(OC)c3nc(-c4cnc(N)cc4C(F)(F)F)nc(N4CCOCC4)c3c2)c1F [Example 25, N-(3-(2-(6-amino-4-(trifluoromethyl)pyridin-3-yl)-8-methoxy-4-morpholinoquinazolin-6-yl)-2-fluorophenyl)propane-1-sulfonamide] | 100 to 1000 | 100 to 1000 | 100 to 1000 | – | – |
| CCCS(=O)(=O)Nc1cccc(-c2cc(OC)c3nc(-c4cnc(N)c(C)c4)nc(N4CCOCC4)c3c2)c1F [Example 26, N-(3-(2-(6-amino-5-methylpyridin-3-yl)-8-methoxy-4-morpholinoquinazolin-6-yl)-2-fluorophenyl)propane-1-sulfonamide] | 100 to 1000 | 100 to 1000 | 100 to 1000 | 100 to 1000 | – |
| CCCS(=O)(=O)Nc1cccc(-c2cc(OC)c3nc(-c4cnc(N)c(Cl)c4)nc(N4CCOCC4)c3c2)c1F [Example 48, N-(3-(2-(6-amino-5-chloropyridin-3-yl)-8-methoxy-4-morpholinoquinazolin-6-yl)-2-fluorophenyl)propane-1-sulfonamide] | – | 100 to 1000 | 1 to 100 | – | – |
| NCCOc1cc(-c2cccc(NS(=O)(=O)CCCF)c2F)cc2c(N3CCOCC3)nc(-c3ccc(N)nc3)nc12 [Example 56, N-(3-(8-(2-aminoethoxy)-2-(6-aminopyridtn-3-yl)-4-morpholinoquinazolin-6-yl)-2-fluorophenyl)-3-fluoropropane-1-sulfonamide] | 1 to 100 | 100 to 1000 | 1 to 100 | – | 1 to 100 |
| COc1cc(-c2c(F)ccc(NS(=O)(=O)CCCF)c2F)cc2c(N3CCOCC3)nc(-c3cnc(N)cc3C(F)(F)F)nc12 [Example 84, N-(3-(2-(6-amino-4-(trifluoromethyl)pyridin~3-yl)-8-methoxy-4-morpholinoquinazolin-6-yl)-2,4-difluorophenyl)-3-fluoropropane-1-sulfonamide] | – | 100 to 1000 | 1 to 100 | – | – |
| O=S(=O)(CCCF)Nc1cccc(-c2ccc3nc(-c4cccc5[nH]ncc45)nc(N4CCOCC4)c3n2)c1F [Example 89, N-(3-(2-(1H-indazol-4-yl)-4-morpholinopyrido[3,2-d]pyrimidin-6-yl)-2-fluorophenyl)-3-fluoropropane-1-sulfonamide] | – | 100 to 1000 | 1 to 100 | – | 100 to 1000 |
| O=S(=O)(CCCF)Nc1cccc(-c2ccc3nc(-c4cnc5[nH]ccc5c4)nc(N4CCOCC4)c3n2)c1F [Example 91, 3-fluoro-N-(2-fluoro-3-(4-morpholtno-2-(1H-pyrrolo[2,3-b]pyrldin-5-yl)pyrido[3,2-d]pyrimidin-6-yl)phenyl)propane-1-sulfonamide] | – | 1 to 100 | 1 to 100 | – | 1 to 100 |
| Nc1ncc(-c2nc(N3CCOCC3)c3nc(-c4cccc(NS(=O)(=O)c5c(F)cccc5F)c4F)ccc3n2)cn1 [Example 98, N-(3-(2-(2-aminopyrimidin-5-yl)-4-morpholinopyrido[3,2-d]pyrimidin-6-yl)-2-fluorophenyl)-2,6-difluorobenzenesulfonamide] | – | 1 to 100 | 1 to 100 | – | 100 to 1000 |
| C[C@@H]1COCCN1c1nc(-c2cnc(N)cc2C(F)(F)F)nc2ccc(-c3cccc(NS(=O)(=O)CCCF)c3F)nc12 [Example 107, (R)-N-(3-(2-(6-amlno-4-(trifluoromethyl)pyridin-3-yl)-4-(3-methylmorpholino)pyrido[3,2-d]pyrimidin-6-yl)-2-fluorophenyl)-3-fluoropropane-1-sulfonamide] | – | 100 to 1000 | 1 to 100 | – | – |
| CCCNc1ncc(-c2nc(N3CCOCC3)c3nc(-c4cccc(NS(=O)(=O)CCCF)c4F)ccc3n2)cn1 [Example 112, 3-fluoro-N-(2-fluoro-3-(4-morpholino-2-(2-(propylamino)pyrimidin-5-yl)pyrido[3,2-d]pyrimidin-6-yl)phenyl)propane-1-sulfonamide] | – | 100 to 1000 | 1 to 100 | – | – |
| CCCNc1ccc(-c2nc(N3CCOCC3)c3nc(-c4cccc(NS(=O)(=O)CCCF)c4F)ccc3n2)cn1 [Example 115, 3-fluoro-N-(2-fluoro-3-(4-morpholino-2-(6-(propylamino)pyridin-3-yl)pyrido[3,2-d]pyrimidin-6-yl)phenyl)propane-1-sulfonamide] | – | 100 to 1000 | 1 to 100 | – | 100 to 1000 |
| CNc1ncc(-c2nc(N3CCOCC3)c3nc(-c4cccc(NS(=O)(=O)CCCF)c4F)ccc3n2)cn1 [Example 121, 3-fluoro-N-(2-fluoro-3-(2-(2-(methylamino)pyrimidin-5-yl)-4-morpholinopyrido[3,2-d]pyrimidin-6-yl)phenyl)propane-1-sulfonamide] | 100 to 1000 | 1 to 100 | 1 to 100 | – | 100 to 1000 |
| CCNc1ncc(-c2nc(N3CCOCC3)c3nc(-c4cccc(NS(=O)(=O)CCCF)c4F)ccc3n2)cn1 [Example 122, N-(3-(2-(2-(ethylamino)pyrimidin-5-yl)-4-morpholinopyrido[3,2-d]pyrimidin-6-yl)-2-fluorophenyl)-3-fluoropropane-1-sulfonamide] | – | 100 to 1000 | 1 to 100 | – | – |
| C[C@H]1COCCN1c1nc(-c2ccc(N)nc2)nc2ccc(-c3cccc(NS(=O)(=O)CCCF)c3F)nc12 [Example 127, (S)-N-(3-(2-(6-aminopyridin-3-yl)-4-(3-methylmorpholino)pyrido[3,2-d]pyrimidin-6-yl)-2-fluorophenyl)-3-fluoropropane-1-sulfonamide] | 100 to 1000 | 1 to 100 | 100 to 1000 | – | 1 to 100 |
| C[C@H]1COCCN1c1nc(-c2cnc(N)nc2)nc2ccc(-c3cccc(NS(=O)(=O)CCCF)c3F)nc12 [Example 128, (S)-N-(3-(2-(2-aminopyrimidin-5-yl)-4-(3-methylrnorpholino)pyrido[3,2-d]pyrimidin-6-yl)-2-fluorophenyl)-3-fluoropropane-1-sulfonamide] | 100 to 1000 | 1 to 100 | 1 to 100 | – | 100 to 1000 |
| Cc1cc(N)ncc1-c1nc(N2CCOC[C@@H]2C)c2nc(-c3cccc(NS(=O)(=O)CCCF)c3F)ccc2n1 [Example 130, (S)-N-(3-(2-(6-amino-4-methylpyridin-3-yl)-4-(3-methylmorpholino)pyrido[3,2-d]pyrimidin-6-yl)-2-fluorophenyl)-3-fluoropropane-1-sulfonamide] | 100 to 1000 | 1 to 100 | 100 to 1000 | – | 100 to 1000 |
| Cc1nc(N)ncc1-c1nc(N2CCOC[C@@H]2C)c2nc(-c3cccc(NS(=O)(=O)CCCF)c3F)ccc2n1 [Example 131, (S)-N-(3-(2-(2-amino-4-methylpyrimidin-5-yl)-4-(3-methylmorpholino)pyrido[3,2-d]pyrimidin-6-yl)-2-fluorophenyl)-3-fluoropropane-1-sulfonamide] | 100 to 1000 | 1 to 100 | 100 to 1000 | – | 100 to 1000 |
| Cc1nc(N)ncc1-c1nc(N2CCOC[C@@H]2C)c2nc(-c3cccc(NS(=O)(=O)c4cc(F)ccc4F)c3F)ccc2n1 [Example 132, (S)-N-(3-(2-(2-amino-4-methylpyrimidin-5-yl)-4-(3-methylmorpholino)pyrido[3,2-d]pyrimidin-6-yl)-2-fluorophenyl)-2,5-difluorobenzenesulfonamide] | 100 to 1000 | 1 to 100 | 1 to 100 | – | 100 to 1000 |
